According to PMC12638379, “An innovative approach to development of new pyrazolylquinolin-2-one hybrids as dual EGFR and BRAF^V600E inhibitors” (Molecular Diversity, 2025):
“Also recorded” adds a separate entry of the source.

Legend:
[1] = system: HOP-92 cells; assay: Annexin V-FITC/PI apoptosis assay; format: cell-based, human
Description: Using the Annexin V-FITC/PI test, the tendency of compound 4e to cause apoptosis and its potential association with cytotoxic action were evaluated. The cells were labeled with annexin V-FITC/PI and cultured for 24 h to detect any signs of apoptosis. […] According to research on early and late apoptosis and DNA content (Figs. 9, 10), 4e with 3.4% necrosis is probably going to result in a large amount of apoptosis (Table 5 and Fig. 10).
Cell apoptosis were analyzed by the Annexin V-FITC Apoptosis Detection Kit (BioVision Research Products, USA). Thereafter, 1-5 x 10^5 cells was collected by centrifugation and resuspend in 500 μl of 1X Binding Buffer. Added 5 μl of Annexin V-FITC and 5 μl of propidium iodide (PI […], optional.). The cells incubated at room temperature for 5 min in the dark;Analyzed by Annexin V-FITC binding flow cytometric method (Ex = 488 nm; Em = 530 nm) usingFITC signal detector (usually FL1) and PI staining by the phycoerythrin emissionsignal detector (usually FL2).For adherent cells, we gently trypsinized and washed cells once with serum-containing mediabefore incubation with Annexin V-FITC (A.3-5).

[2] = system: HOP-92 cells; assay: Cell cycle analysis (propidium iodide flow cytometry); format: cell-based, human
From the text: Research has been done on how the most powerful antitumor compound, 4e, affects the HOP-92 cell cycle’s growth and apoptosis.
Researcher : Dr.Mohamed Hawas email: mohhawwas80@gmail.com mob. 01151345909 Assay : Cell Cycle Analysis mohamedhassan.pharm.ast@azhr.edu.eg Samples : 02 samplescell line : ---Ref. : ---Date : 00-00-2022Reader : BD FACSCaliburKit used : ab139418_Propidium Iodide Flow Cytometry Kit/BDSolvent : DMSOAssay samples : Cell culture

[3] = in vitro; conditions: human, % viability

Structure (SMILES): C/C(=N\Nc1ccc(S(N)(=O)=O)cc1)c1cnn(-c2cc(=O)[nH]c3ccc(Br)cc23)c1C [Compound 4e, (E)-4-(2-(1-(1-(6-bromo-2-oxo-1,2-dihydroquinolin-4-yl)-5-methyl-1H-pyrazol-4-yl)ethylidene)hydrazineyl)benzenesulfonamide]
- Apoptosis Late ([1]; HOP92 cells, control 0.15): 11.28
- Apoptosis Early ([1]; HOP92 cells, control 0.69): 22.91
- Necrosis ([1]; HOP92 cells, control 1.3): 3.4
- Apoptosis Total ([1]; HOP92 cells, control 2.14): 37.59
- Apoptosis Early ([1]; HOP-92, 24 h at IC50): 22.91%
- Apoptosis Late ([1]; HOP-92, 24 h at IC50): 11.28%
- Apoptosis Total ([1]; HOP-92, 24 h at IC50): 37.59%
- Necrosis ([1]; HOP-92, 24 h at IC50): 3.4%
- DNA content Comment ([2]; HOP92 cells): cell growth arrest@ G1
- DNA content %G2/M ([2]; HOP92 cells, control 16.08): 14.6%
- DNA content %S ([2]; HOP92 cells, control 35.66): 31.29%
- DNA content %G0-G1 ([2]; HOP92 cells, control 48.26): 54.11%
- Comment (cell cycle arrest) ([2]; HOP-92, 24 h at IC50): cell growth is arrested at the G1 phase; also recorded: cell cycle arrest at the G0-1 phase; also recorded: Cell growth arrest at G1phase
- DNA content % G0–G1 ([2]; HOP-92, 24 h at IC50): 54.11%
- DNA content %G2/M ([2]; HOP-92, 24 h at IC50): 14.6%
- DNA content %S ([2]; HOP-92, 24 h at IC50): 31.3%

Structure (SMILES): CN[C@@H]1C[C@H]2O[C@@](C)([C@@H]1OC)n1c3ccccc3c3c4c(c5c6ccccc6n2c5c31)C(=O)NC4 [Staurosporine, reference compound]
- viability at 0.4 µM [3]: 84.6%
- viability at 6.3 µM [3]: 56.2%
- viability at 25 µM [3]: 46.8%
- viability at 1.6 µM ([3]; WI38, 1.6uM (log conc. 0.19)): 68.1%
- viability at 100 µM ([3]; WI38, 100uM (log conc. 2)): 37.4%
